Test results taken from US20130053434A1, “IRREVERSIBLE INHIBITORS USEFUL FOR THE TREATMENT OF KINASE-RELATED PATHOLOGIES” (CENTRE NATIONAL DE LA RECHERCHE SCIENTIFIQUE, priority 2009, published 2013).
Where two headings read alike, the source gives them in different places. Blank lines part the entries; values can stand above or below the compound they belong to.

How the values were obtained:
[1] = ester bond, DIAD/PPh3, toluene, 23.0 °C
KIT V559D, V654A = KIT V559D, V654A (Homo sapiens, UniProt P10721, V559D/V654A); test: kinase mutants: KIT V559D, V654A; format: binding; details: dual mutation conferring resistance to imatinib
Chain of KIT V559D, V654A (P10721 26-976 V559D/V654A): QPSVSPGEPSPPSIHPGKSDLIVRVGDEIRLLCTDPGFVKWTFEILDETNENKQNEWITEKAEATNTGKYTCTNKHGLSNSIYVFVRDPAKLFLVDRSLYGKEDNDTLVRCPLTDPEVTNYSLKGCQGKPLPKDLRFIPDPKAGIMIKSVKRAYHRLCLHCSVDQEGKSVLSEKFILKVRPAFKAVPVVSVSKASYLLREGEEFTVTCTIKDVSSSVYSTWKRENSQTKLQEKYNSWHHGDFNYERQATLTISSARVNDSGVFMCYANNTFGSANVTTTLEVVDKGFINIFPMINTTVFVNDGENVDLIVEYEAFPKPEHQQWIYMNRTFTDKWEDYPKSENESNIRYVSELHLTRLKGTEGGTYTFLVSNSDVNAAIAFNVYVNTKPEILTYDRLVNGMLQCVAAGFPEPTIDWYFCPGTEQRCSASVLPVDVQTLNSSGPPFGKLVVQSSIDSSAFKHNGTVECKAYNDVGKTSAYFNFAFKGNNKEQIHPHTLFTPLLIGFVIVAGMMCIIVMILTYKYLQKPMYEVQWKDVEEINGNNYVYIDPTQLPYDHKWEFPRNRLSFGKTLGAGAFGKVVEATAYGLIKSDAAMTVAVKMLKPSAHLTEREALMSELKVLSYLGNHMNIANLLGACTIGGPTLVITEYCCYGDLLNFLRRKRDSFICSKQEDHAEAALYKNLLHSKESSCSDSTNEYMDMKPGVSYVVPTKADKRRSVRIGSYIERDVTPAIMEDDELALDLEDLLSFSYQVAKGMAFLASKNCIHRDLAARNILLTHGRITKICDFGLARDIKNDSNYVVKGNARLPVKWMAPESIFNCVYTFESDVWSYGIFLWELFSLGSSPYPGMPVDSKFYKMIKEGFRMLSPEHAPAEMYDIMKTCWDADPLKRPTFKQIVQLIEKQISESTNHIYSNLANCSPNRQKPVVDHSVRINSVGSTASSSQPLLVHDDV
Experimental: (§1) Two representative library members (1afh and 1bgi) were then evaluated in a larger panel of kinases (402) using the technology described by Lockhart et al. (M. A. Fabian, et al., Nat. Biotechnol. 2005, 23, 329-336; M. W. Karaman, et al., Nat. Biotechnol. 2008, 26, 127-132). In this panel, 31 kinases out of the 46 kinases bioinformatically identified by Santi and coworkers are present along with numerous other kinases bearing a cysteine residue at other positions within the ATP-binding pocket (J. Zhang, P. L. Yang, N. S. Gray, Nat. Rev. Cancer 2009, 9, 28-39).
(§2) The two compounds were also evaluated against a series of mutations of Flt3 and KIT. It is known that several mutation in Flt3 lead to a gain of function or constitutive activity.

panel of kinases (402) = test: larger panel of kinases (402), competition binding, whole panel; details: 1 μM
Experimental: as §1
(§3) The selectivity profile was measure using the KinomeScan™ technology (http://www.kinomescan.com/) based on active-site dependent competition binding assay (Karaman, M. W., et al. (2008) Nat. Biotechnol. 26, 127-32; Fabian, M. A., et al. (2005) Nat. Biotechnol. 23, 329-36). Compounds 3 and 5 were profiled against a panel of 50 kinases including 42 kinases from the group of 48 kinases predicted by Santi et al. (Schirmer, A., et al. (2006) Proc. Natl. Acad. Sci. USA 103, 4234-9) to be targeted by hypothemycin and 5 mutants of FLT3 as well as 3 mutants of KIT. Both compounds were assayed at 1 μM. The results are expressed as a percentage of signal between a negative (DMSO) and positive (know binder) control [(test compound−positive control)/([…])×100].

KIT D816V = KIT D816V (Homo sapiens, UniProt P10721, D816V); test: kinase mutants: KIT D816V; format: binding; details: gain of function mutation
Chain of KIT D816V (P10721 26-976 D816V): as the sequence (P10721 26-976 V559D/V654A) above, with D534V, A629V, D791V counted along it
Experimental: as §1, §2

KIT L576P = KIT L576P (Homo sapiens, UniProt P10721, L576P); test: kinase mutants: KIT L576P; format: binding; details: gain of function mutation
Chain of KIT L576P (P10721 26-976 L576P): as the sequence (P10721 26-976 V559D/V654A) above, with D534V, L551P, A629V counted along it
Experimental: as §1, §2

KIT V559D, T670I = KIT V559D, T670I (Homo sapiens, UniProt P10721, T670I/V559D); test: kinase mutants: KIT V559D, T670I; format: binding; details: dual mutation conferring resistance to imatinib
Chain of KIT V559D, T670I (P10721 26-976 V559D/T670I): as the sequence (P10721 26-976 V559D/V654A) above, with A629V, T645I counted along it
Experimental: as §1, §2

Flt3 K663Q = Flt3 K663Q (Homo sapiens, UniProt P36888, K663Q); test: kinase mutants: Flt3 K663Q; format: binding; details: gain of function mutation
Experimental: as §1, §2

Flt3 N841L = test: kinase mutants: Flt3 N841L; format: binding; details: gain of function mutation
Experimental: as §1, §2

PDGFRβ = target: T1, PDGFRβ (Homo sapiens, UniProt P09619); test: panel of 402 kinases: PDGFRβ; format: binding; details: 1 μM
T1 construct: purchased KinomeScan
T1 sequence (P09619 33-1106): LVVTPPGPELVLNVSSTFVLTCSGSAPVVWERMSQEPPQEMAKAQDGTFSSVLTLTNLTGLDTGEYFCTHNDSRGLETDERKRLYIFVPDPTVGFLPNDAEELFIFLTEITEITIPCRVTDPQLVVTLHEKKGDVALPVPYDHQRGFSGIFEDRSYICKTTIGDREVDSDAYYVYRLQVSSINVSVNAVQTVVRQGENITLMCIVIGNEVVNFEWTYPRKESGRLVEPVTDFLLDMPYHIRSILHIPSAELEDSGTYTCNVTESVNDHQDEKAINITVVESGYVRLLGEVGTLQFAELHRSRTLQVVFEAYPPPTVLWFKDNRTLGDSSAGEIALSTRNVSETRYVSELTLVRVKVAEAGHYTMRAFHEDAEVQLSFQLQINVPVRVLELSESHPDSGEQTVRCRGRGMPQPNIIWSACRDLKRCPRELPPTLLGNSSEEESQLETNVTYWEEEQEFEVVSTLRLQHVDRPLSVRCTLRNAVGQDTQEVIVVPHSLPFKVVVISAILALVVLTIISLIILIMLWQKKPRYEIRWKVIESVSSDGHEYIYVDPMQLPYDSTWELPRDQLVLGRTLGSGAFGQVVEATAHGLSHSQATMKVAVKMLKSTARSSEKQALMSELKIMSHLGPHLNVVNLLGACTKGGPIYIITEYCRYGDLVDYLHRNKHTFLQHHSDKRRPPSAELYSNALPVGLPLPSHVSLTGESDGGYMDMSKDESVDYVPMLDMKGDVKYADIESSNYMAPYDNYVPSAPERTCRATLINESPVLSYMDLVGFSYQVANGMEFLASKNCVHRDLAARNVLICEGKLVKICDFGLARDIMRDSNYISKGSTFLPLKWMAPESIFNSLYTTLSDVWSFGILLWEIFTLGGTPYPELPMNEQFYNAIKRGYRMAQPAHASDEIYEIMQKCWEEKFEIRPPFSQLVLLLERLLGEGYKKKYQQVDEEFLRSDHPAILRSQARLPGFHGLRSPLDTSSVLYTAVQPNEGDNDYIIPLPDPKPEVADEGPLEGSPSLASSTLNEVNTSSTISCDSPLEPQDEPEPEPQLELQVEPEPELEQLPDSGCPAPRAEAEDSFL
Experimental: as §1, §3

KIT V559D = KIT V559D (Homo sapiens, UniProt P10721, V559D); test: kinase mutants: KIT V559D; format: binding; details: gain of function mutation
Chain of KIT V559D (P10721 26-976 V559D): as the sequence (P10721 26-976 V559D/V654A) above, with A629V counted along it
Experimental: as §1, §2

MEK4 = target: T2, MEK4 (Homo sapiens, UniProt P45985); test: panel of 402 kinases: MEK4; format: binding; details: read-out: residual activity relatively to control
T2 construct: purchased KinomeScan
T2 sequence (P45985 whole entry): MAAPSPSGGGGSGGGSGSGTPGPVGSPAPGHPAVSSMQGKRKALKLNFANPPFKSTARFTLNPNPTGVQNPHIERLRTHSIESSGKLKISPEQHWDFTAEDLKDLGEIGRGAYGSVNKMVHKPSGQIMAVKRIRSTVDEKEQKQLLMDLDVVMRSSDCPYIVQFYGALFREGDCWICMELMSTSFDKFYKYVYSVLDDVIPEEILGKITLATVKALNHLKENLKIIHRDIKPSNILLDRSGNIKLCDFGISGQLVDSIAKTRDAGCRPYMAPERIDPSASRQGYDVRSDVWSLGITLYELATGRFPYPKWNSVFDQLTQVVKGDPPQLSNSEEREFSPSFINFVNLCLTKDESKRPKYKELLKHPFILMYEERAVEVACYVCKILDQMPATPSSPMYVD
Experimental: as §1, §3

Flt1 = target: T3, Flt1 (Homo sapiens, UniProt P17948); test: panel of 402 kinases: Flt1; format: binding; details: 1 μM
T3 construct: purchased KinomeScan
T3 sequence (P17948 27-1338): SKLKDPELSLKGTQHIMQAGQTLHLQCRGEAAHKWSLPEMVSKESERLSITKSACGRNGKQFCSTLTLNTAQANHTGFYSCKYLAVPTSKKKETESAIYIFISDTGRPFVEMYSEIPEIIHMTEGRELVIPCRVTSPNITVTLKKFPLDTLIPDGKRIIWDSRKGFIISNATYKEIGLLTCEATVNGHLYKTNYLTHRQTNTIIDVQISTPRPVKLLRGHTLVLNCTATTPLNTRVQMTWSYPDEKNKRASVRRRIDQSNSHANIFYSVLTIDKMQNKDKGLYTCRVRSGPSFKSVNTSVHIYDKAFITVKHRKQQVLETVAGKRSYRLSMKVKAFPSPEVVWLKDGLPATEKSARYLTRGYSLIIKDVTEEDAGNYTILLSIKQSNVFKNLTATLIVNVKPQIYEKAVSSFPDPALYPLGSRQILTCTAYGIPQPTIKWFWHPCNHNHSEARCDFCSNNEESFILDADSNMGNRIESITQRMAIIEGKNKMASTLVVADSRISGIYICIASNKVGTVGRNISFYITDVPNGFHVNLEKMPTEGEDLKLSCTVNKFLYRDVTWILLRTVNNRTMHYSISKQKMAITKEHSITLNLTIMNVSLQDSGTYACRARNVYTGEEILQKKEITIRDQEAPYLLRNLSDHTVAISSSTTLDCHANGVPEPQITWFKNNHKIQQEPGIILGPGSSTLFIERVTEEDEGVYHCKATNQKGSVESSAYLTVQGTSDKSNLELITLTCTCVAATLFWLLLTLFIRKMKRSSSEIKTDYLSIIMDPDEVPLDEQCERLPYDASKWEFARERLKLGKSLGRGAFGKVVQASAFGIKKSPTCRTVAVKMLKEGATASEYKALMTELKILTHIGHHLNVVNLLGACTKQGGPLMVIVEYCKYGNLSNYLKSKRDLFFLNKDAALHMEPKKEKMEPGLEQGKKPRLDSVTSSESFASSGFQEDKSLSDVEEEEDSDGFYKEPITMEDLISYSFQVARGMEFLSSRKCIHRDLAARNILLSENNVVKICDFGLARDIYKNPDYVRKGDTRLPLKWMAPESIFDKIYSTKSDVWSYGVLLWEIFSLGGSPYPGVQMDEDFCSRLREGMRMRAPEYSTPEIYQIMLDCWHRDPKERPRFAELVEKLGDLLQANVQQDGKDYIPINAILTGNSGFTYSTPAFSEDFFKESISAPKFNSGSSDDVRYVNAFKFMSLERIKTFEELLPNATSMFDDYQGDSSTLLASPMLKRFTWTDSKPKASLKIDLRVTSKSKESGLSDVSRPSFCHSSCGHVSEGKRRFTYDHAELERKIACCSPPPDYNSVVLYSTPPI
Experimental: as §1, §3

Flt3 D835Y = Flt3 D835Y (Homo sapiens, UniProt P36888, D835Y); test: kinase mutants: Flt3 D835Y; format: binding; details: gain of function mutation
Experimental: as §1, §2

Compound: CCOCOc1cc2c(c(OCOCC)c1)C(=O)O[C@@H](C)C/C=C\C(OC(=O)c1ccccc1)[C@H]1OC(C)(C)O[C@H]1CCO2 (stereo partly shown)
ring closure, yield of all isomers ([1]; from CCOCOc1cc(OCC[C@@H]2OC(C)(C)O[C@@H]2C(/C=C\C[C@@H](C)O)OC(=O)c2ccccc2)c(C(=O)O)c(OCOCC)c1, 10.7 mM, 2.0 h): 80%

activity against dual mutation (KIT V559D, V654A): not active
number of kinases outside of the set of 46 predicted kinases showing significant inhibition (STK36 and PRKD2) (panel of kinases (402)): two
number of kinases out of 31 with more than 50% residual activity (panel of kinases (402); 31 of the 46 predicted kinases): 19
activity against mutant (KIT D816V): retained their activity
activity against mutant (KIT L576P): retained their activity
activity against dual mutation (KIT V559D, T670I): not active
sensitivity of mutant to the inhibitors (Flt3 K663Q): remained equally sensitive
sensitivity of mutant to the inhibitors (Flt3 N841L): remained equally sensitive
activity compared to 1afh (PDGFRβ): ten times less active
activity against mutant (KIT V559D): retained their activity
remaining activity at 1 µM (MEK4): 1%
activity compared to 1afh (Flt1): ten times less active
activity against mutant compared with wild type (Flt3 D835Y): more active than against the wild type
Compound: O=C1OCC/C=C\C(=O)[C@@H](O)[C@@H](O)[C@H](O)COc2cc(O)cc(O)c21 [1bgi]

Compound: CCOCOc1cc2c(c(OCOCC)c1)C(=O)O[C@@H](C)C/C=C\C(OC(=O)c1ccccc1)[C@H]1OC(C)(C)O[C@H]1CC/C=C/2 (stereo partly shown)
ring closure, yield of all isomers ([1]; from CCOCOc1cc(/C=C/CC[C@@H]2OC(C)(C)O[C@@H]2C(/C=C\C[C@@H](C)O)OC(=O)c2ccccc2)c(C(=O)O)c(OCOCC)c1, 10.5 mM, 2.0 h): 70%

Compound: CCOCOc1cc2c(c(OCOCC)c1)C(=O)O[C@@H](C)C/C=C(/F)C(OC(=O)c1ccccc1)[C@H]1OC(C)(C)O[C@H]1CCO2 (stereo partly shown)
ring closure, yield of all isomers ([1]; from CCOCOc1cc(OCC[C@@H]2OC(C)(C)O[C@@H]2C(OC(=O)c2ccccc2)/C(F)=C\C[C@@H](C)O)c(C(=O)O)c(OCOCC)c1, 10.5 mM, 1.5 h, 2 steps): 70%
